We go through 3 compounds from article PMC10254530, “Design and Synthesis of Brefeldin A-Isothiocyanate Derivatives with Selectivity and Their Potential for Cervical Cancer Therapy” (Molecules, 2023).

Data set [1] has as its system U87 cells. The arrangement: method as in PMID 35557894. The following applies: glioblastoma multiforme U87 cells in vitro; read-out: IC50, cytotoxic activity against U87 cells; cited from earlier work.
The test system of data set [2] is HepG2 cells. Description: CCK-8 antiproliferative assay, HepG2. The following applies: Homo sapiens, HepG2; CCK-8, 48 h, mean ± SD of three experiments; read-out: IC50 HepG2. It counts as cell-based.
For data set [3], the system named is MDA-MB-231 cells. Description: CCK-8 antiproliferative assay, MDA-MB-231. It counts as cell-based. The following applies: Homo sapiens, MDA-MB-231; CCK-8, 48 h, mean ± SD of three experiments; read-out: IC50 MDA-MB-231.
Data set [4] deals with A375 cells. Description: CCK-8 antiproliferative assay, A375. The following applies: Homo sapiens, A-375; CCK-8, 48 h, mean ± SD of three experiments; read-out: IC50 A375. It counts as cell-based.
Data set [5] relates to A549 cells. Description: CCK-8 antiproliferative assay, A549. It counts as cell-based. The following applies: Homo sapiens, A549; CCK-8, 48 h, mean ± SD of three experiments; read-out: IC50 A549.
In data set [6] the test system is HeLa cells. Description: CCK-8 antiproliferative assay, HeLa. It counts as cell-based, human. The following applies: Homo sapiens, HeLa; CCK-8, 48 h, mean ± SD of three experiments; read-out: IC50 HeLa.
Data set [7] deals with L-02 cells. Description: CCK-8 cytotoxicity assay, normal liver L-02. The following applies: Homo sapiens, L02; CCK-8, 48 h, normal liver cells, mean ± SD of three experiments; read-out: IC50 L-02. It counts as cell-based.
For data set [8], the system named is HeLa cells. Description: Cell cycle analysis, PI staining flow cytometry. It counts as cell-based, human. The following applies: 48 h; for cells in G1 phase: control 33.42%. Here is the method:
Cell cycle was detected by PI single staining method. Cell suspension with a concentration of 2 × 10^5 cells/mL was prepared after cell counting. 1 mL cell suspension was added to each well of the 6-well plate and then placed in an incubator overnight. The medium in each well was discarded, and 1 mL of gradient diluted derivative solution 6 (0, 0.46, 0.92 and 1.84 µM) was added (the control group was added with serum-free medium). According to the manual of Cell Cycle Detection Kit KGA511, after 48 h, HeLa cells were collected and fixed with 70% ethanol for 2 h. After centrifugation, 100 μL RNase A (working concentration 20 μg/mL) was added and placed in a 37 °C water bath for 30 min. Then 400 μL PI staining (working concentration 50 μg/mL) was added and mixed, centrifugal tube was placed in the dark at 4 °C for 30 min. Red fluorescence at the excitation wavelength of 488 nm was recorded by flow cytometry.

Data set [9] concerns HeLa cells. Description: Hoechst 33258 staining assay. It counts as cell-based, human. The following applies: HeLa, 0.46, 0.92 and 1.84 µM, 48 h. Here is the method: HeLa cells in 6-well plates were collected after administration. According to the manual of Apoptotic Cell Hoechst 33258 Detection Kit KGA211, HeLa cells were fixed with paraformaldehyde for 30 min. After centrifugation, HeLa cells were soaked in PBS for 5 min and washed 3 times. An appropriate amount of Hoechst 33258 staining solution (working concentration 0.5 μg/mL) was added so that fully covers the HeLa cells and then the cells were left at room temperature for 10 min. After dyeing, HeLa cells were soaked in PBS for 5 min and washed 3 times. Observation under an Olympus (Tokyo, Japan) IX73 fluorescence microscope after sealing with an anti-fluorescence quenching sealing solution (glycerol:PBS = 1:9).

The test system of data set [10] is HeLa cells. Description: Annexin V-FITC/PI apoptosis analysis, flow cytometry. It counts as cell-based, human. The following applies: 48 h, control 3.21%. On the procedure:
According to the manual of Annexin V-FITC/PI Apoptosis Detection Kit KGA105, HeLa cells in 6-well plates were collected by 0.25% trypsin without EDTA (in PBS) digestion after 48 h administration by the above method. After washing with PBS 3 times, 500 μL Binding Buffer was added to suspend HeLa cells. Then Annexin V-FITC and PI were added successively in dark for 15 min, and HeLa cell apoptosis was detected by BD FACSVerse flow cytometer.

In data set [11] the test system is HeLa cells. Description: Mitochondrial membrane potential analysis, JC-1 staining. The following applies: 48 h; for JC-1 quadrant Q1-LL / JC-1 quadrant Q1-UL: control 0.00%; for JC-1 green fluorescent cells (decreased mitochondrial membrane potential), quadrant Q1-LR: control 4.07%; for JC-1 quadrant Q1-UR: control 95.93%. It counts as cell-based, human. On the procedure:
Mitochondrial membrane potential was detected by the JC-1 staining method. According to the manual of JC-1 Apoptosis Detection Kit KGA601, HeLa cells in 6-well plates were collected by 0.25% trypsin without EDTA (in PBS) digestion after 48 h administration. The Incubation Buffer was prepared according to the instructions, mixing and preheating to 37 °C. 500 μL 1 × Incubation Buffer was mixed with 1 μL JC-1 (working concentration 10 μg/mL) to suspend HeLa cells and then the cells were incubated for 20 min. Cells were collected by centrifugation at room temperature, washed twice with 1 × Incubation Buffer and then detected by BD FACSVerse flow cytometer.

In data set [12] the test system is human T lymphoblastoid cell line Jurkat. The arrangement: method as in PMID 22200402. The following applies: 0.5 μM; cited from earlier work.

A value given as a limit tells only on which side of the number the result lay.

With `C[C@@H]1CCC2[C@@H](C)[C@@H](OCCCN=C=S)O[C@@H]3O[C@@]4(C)CCC1[C@@]23OO4` (some centres unmarked) [compound B], the half-inhibitory concentration (IC50) in data set [1] was 7.41 µM.

As to `C[C@H]1CCC/C=C/[C@@H]2C[C@H](O)C[C@H]2[C@H](OC(=O)c2ccc(N=C=S)cc2)/C=C/C(=O)O1` [Compound 6, (1R,2E,6S,10E,11aS,13S,14aR)-13-Hydroxy-6-methyl-4-oxo-1,6,7,8,9,11a,12,13,14,14a-decahydro-4H-cyclopenta[f][1]oxacyclotridecin-1-yl 4-isothiocyanatobenzoate], the half-maximal inhibitory concentration (IC50) is 20.8 ± 1.22 µM in data set [2]; 6.83 ± 0.61 µM in [3]; 3.08 ± 0.43 µM in [4]; 7.18 ± 0.51 µM in data set [5]; 1.84 ± 0.08 µM in [6]; more than 80 µM in data set [7]. For the same compound, the “cells in G1 phase” value came to 43.39% in [8] (0.46 µM), 49.55% in [8] (0.92 µM) and 60.80% in data set [8] (1.84 µM). Besides, in [8] (1.84 µM, control 22.94%), the “cells in G2 phase” value amounted to 12.50%. In addition, in [8] (1.84 µM, control 43.64%), the “cells in S phase” value is listed as 26.70%. Further, in data set [9], the “nuclear morphology, Hoechst33258 staining” value is recorded as “nuclear fragmentation”. The “percentage of cells in the early and late stages of apoptosis” value amounted to 16.04% in [10] (0.46 µM), 26.41% in data set [10] (0.92 µM) and 39.03% in data set [10] (1.84 µM). Also, the “JC-1 quadrant Q1-LL” value in data set [11] (0.46 µM), in data set [11] (0.92 µM) and in data set [11] (1.84 µM) was 0.00% in each case. The “JC-1 quadrant Q1-UL” value in data set [11] (0.46 µM), in data set [11] (0.92 µM) and in [11] (1.84 µM) was 0.00% throughout. Moreover, the entries for the “JC-1 green fluorescent cells (decreased mitochondrial membrane potential), quadrant Q1-LR” value in data set [11] (0.46 µM), in data set [11] (0.92 µM) and in [11] (1.84 µM) were 13.88%, 24.80% and 39.69%, respectively. Also, the “JC-1 quadrant Q1-UR” value in [11] (0.46 µM) is listed as 86.12%; in [11] (0.92 µM) it was 75.20%; in [11] (1.84 µM) it was 60.31%.

With `O=C1c2ccc3c4c(ccc(c24)C(=O)N1CCCN=C=S)C(=O)N(CCCN=C=S)C3=O` [derivative A], the “effect on apoptosis in Jurkat cells” value in [12] is listed as “induced apoptosis by activating caspase-8”.
